Reference: paper PMC8623398, “Investigation of the Mechanisms of Cytotoxic Activity of 1,3-Disubstituted Thiourea Derivatives” (Pharmaceuticals, 2021)

Legend:
SW480 cells = assay: MTT assay, SW480; assay type: cell-based, human; conditions: 50% growth inhibition
Protocol: (§1) As a first step in assessing their cytotoxic properties, all thioureas of the series were assayed against four human carcinoma cell lines, such as SW480 (primary colon cancer), SW620 (metastatic colon cancer), PC3 (metastatic prostate cancer), and K-562 (chronic myelogenous leukemia), as well as against the normal cell line HaCaT (immortalized human keratinocytes). Table 1 lists the compound concentrations that produced 50% of growth inhibition (IC50, μM), generated by the MTT method, in comparison with two commonly used chemotherapeutic agents, doxorubicin and cisplatin.
(§2) The human primary (SW480), metastatic (SW620) colon cancer, metastatic prostate cancer (PC3), chronic myelogenous leukemia (K-562), and human immortal keratinocyte (HaCaT) cell lines were purchased from the American Type Culture Collection (ATCC, Rockville, MD, USA). The cells were cultured in medium according to protocols (MEM for SW480 and SW620, RPMI 1640 for PC3 and K-562, and DMEM for HaCaT cells), supplemented with 10% FBS, penicillin (100 U/mL) and streptomycin (100 μg/mL), and cultured in a 37 °C/5% CO2 humidified incubator. The cells were cultured until appropriate confluence was achieved (80–90%). Next, they were harvested by treatment with 0.25% trypsin (Gibco Life Technologies, Waltham, MA, USA) excluding the non-adherent K-562 cell line and used for studies.
(§3) Cells without the studied compounds in medium were used as a control.
(§4) The cell viability was assessed by determination of MTT salt [3-(4,5-dimethylthiazol-2-yl)-2,5-diphenyltetrazoliumbromide] conversion by mitochondrial dehydrogenase. The MTT assay was performed as previously described. Alternatively, non-adherent leukemic cells were centrifuged in a microplate centrifuge (400× g, 5 min) during the collection stages. Experiments were repeated three times. Cell viability was presented as a percent of MTT reduction in the treated cells versus the control cells. The number of viable cells cultured without the studied compounds was assumed as 100%. A decreased relative MTT level indicated decreased cell viability. Thiourea compounds with the highest cytotoxic potential assessed by MTT determination (with the lowest IC50) were chosen for subsequent assessments of cytotoxicity mechanisms.

SW620 cells = assay: MTT assay, SW620; assay type: cell-based, human; conditions: 50% growth inhibition
Protocol: as §1, §2, §3, §4

K-562 cells = assay: MTT assay, K562; assay type: cell-based, human; conditions: 50% growth inhibition
Protocol: as §1, §2, §3, §4

HaCaT cells = assay: MTT assay, HaCaT normal cells; assay type: cell-based, human; conditions: 72 h
Protocol: as §1, §2, §3, §4

PC3 cells = assay: MTT assay, PC3; assay type: cell-based; conditions: Homo sapiens, PC-3, 72 h, 50% growth inhibition
Protocol: as §1, §2, §3, §4

[1] = tested on: SW480, SW620, PC3, K-562 cells; assay: MTT assay, summary over cancer cell lines; assay type: cell-based; conditions: Homo sapiens, 72 h, depending on the tumor line, read-out: IC50 (range or bound over cancer cell lines)
Protocol: as §1, §3, §4

IC50 (SW480 cells; Homo sapiens, SW480, 72 h) [µM] | IC50 (SW620 cells; Homo sapiens, SW-620, 72 h) [µM] | IC50 (PC3 cells) [µM] | IC50 (K-562 cells; Homo sapiens, K562, 72 h) [µM] | IC50 [1] [µM] | melting point [°C] | Compound | IC50 (SW480 cells; 72 h) [µM] | IC50 (SW620 cells; 72 h) [µM] | IC50 (K-562 cells; 72 h) [µM] | IC50 (HaCaT cells) [µM] | IC50 (HaCaT cells; Homo sapiens, HaCaT) [µM]
22.5 ± 0.1 | 14 ± 1.73 | 10.5 ± 2.52 | 35.9 ± 0.07 | ≤ 10 |  | FC(F)(F)c1cccc(NC(=S)Nc2cccc(Cl)c2Cl)c1 [Compound 4, 1-(2,3-dichlorophenyl)-3-[3-(trifluoromethyl)phenyl]thiourea] |  |  |  |  | 13.9 ± 1.7
7.3 ± 0.89 | 23.2 ± 4.07 | 51.8 ± 3.19 | 52.5 ± 2.14 | ≤ 10 | 163 to 165 | Cc1c(Cl)cccc1NC(=S)Nc1cccc(C(F)(F)F)c1 [Compound 5, 1-(3-chloro-2-methylphenyl)-3-[3-(trifluoromethyl)phenyl]thiourea] |  |  |  |  | 55.6 ± 1.74
> 100 | 30.1 ± 9.74 | 17.1 ± 0.57 | 76.5 ± 4.57 |  | 173 to 175 | FC(F)(F)c1cccc(NC(=S)Nc2ccccc2C(F)(F)F)c1 [Compound 7, 1-[2-(trifluoromethyl)phenyl]-3-[3-(trifluoromethyl)phenyl]thiourea] |  |  |  |  | 65.7 ± 3.83

Second part, the compound before the results:

Compound | IC50 (SW480 cells; Homo sapiens, SW480, 72 h) [µM] | IC50 (SW620 cells; Homo sapiens, SW-620, 72 h) [µM] | IC50 (PC3 cells) [µM] | IC50 (K-562 cells; Homo sapiens, K562, 72 h) [µM] | IC50 [1] [µM] | melting point [°C] | IC50 (SW480 cells; 72 h) [µM] | IC50 (SW620 cells; 72 h) [µM] | IC50 (K-562 cells; 72 h) [µM] | IC50 (HaCaT cells) [µM] | IC50 (HaCaT cells; Homo sapiens, HaCaT) [µM]
N.N.[Cl][Pt][Cl] [Cisplatin, reference compound] |  |  |  |  |  |  | 10.4 ± 0.9 | 6.7 ± 1.1 | 8.2 ± 4.08 | 6.3 ± 0.7 | 
Cc1ccc(Cl)cc1NC(=S)Nc1cccc(C(F)(F)F)c1 [Compound 6, 1-(5-chloro-2-methylphenyl)-3-[3-(trifluoromethyl)phenyl]thiourea] | 12.7 to 15.6 | 22.1 ± 4.36 | 65.9 ± 10.5 | 40.3 ± 3.88 |  |  | 15.6 ± 4.1 |  |  |  | 14.5 ± 1.08
N#Cc1ccc(NC(=S)Nc2cccc(C(F)(F)F)c2)cc1 [Compound 10, 1-(4-cyanophenyl)-3-[3-(trifluoromethyl)-phenyl]thiourea] | 20.6 ± 3.59 | 18.7 ± 5.92 | 66.2 ± 4.47 | 10.2 to 12.9 |  |  |  |  | 12.9 ± 4.33 |  | 50.1 ± 4.89
FC(F)(F)c1cccc(NC(=S)Nc2ccc(Br)cc2)c1 [Compound 11, 1-(4-bromophenyl)-3-[3-(trifluoromethyl)phenyl]thiourea] | 41.5 ± 4.46 | 16.2 ± 4.08 | 76.6 ± 4.7 | 74.2 ± 6.82 |  |  |  |  |  |  | 17.2 ± 0.64
FC(F)(F)c1cccc(NC(=S)NCCc2ccccc2)c1 [Compound 12, 1-(2-phenylethyl)-3-[3-(trifluoromethyl)-phenyl]thiourea] | 25.3 ± 8.53 | 38.2 ± 3.1 | 26.7 ± 3.95 | 23.8 ± 0.45 | 23.8 to 38.2 |  |  |  |  |  | 55.4 ± 1.08
COc1cccc2c1C(=O)c1c(O)c3c(c(O)c1C2=O)C[C@@](O)(C(=O)CO)C[C@@H]3O[C@H]1C[C@H](N)[C@H](O)[C@H](C)O1 [Doxorubicin, reference compound] | 0.8 ± 0.1 | 0.3 ± 0.08 | 0.3 ± 0.12 | 0.2 ± 0.1 |  |  |  |  |  |  | 0.3 ± 0.11
